Test [1] relates to C. elegans. Kind of test: Chronic effect of amphetamine on pharyngeal pumping (plates, 20 hours). The format is in vivo, Caenorhabditis elegans. The conditions noted are these: 5 mM amphetamine plates.
Test [2] deals with C. elegans. Kind of test: Acute amphetamine assay of pharyngeal pumping (90 minutes in M9 buffer). The format is in vivo, Caenorhabditis elegans.
For test [3], the system named is C. elegans. The test can be described thus: Growth of worms on agar plates containing amphetamine.
The subject of test [4] is C. elegans. The test can be described thus: Muscimol effect on rate of pharyngeal contractions (plates with food). The note with it: N2 and eg814, plates with 0, 0.1 and 1 mM muscimol, 20 and 45 minutes. Type of test: in vivo, Caenorhabditis elegans.

Each structure is given as a SMILES string. Entries after “also recorded” stand apart in the source; their conditions may differ. Structures can show the parent of a compound that is named as a salt.

For the molecule `C[C@H](N)Cc1ccccc1` [amphetamine, d-amphetamine sulfate], in the test with C. elegans [1] (N2, first day adults), the “rate of pharyngeal contractions” value is “greatly reduced rate of pharyngeal contractions”. In addition, the “rate of pharyngeal contractions (pumping)” value in the test with C. elegans [1] (eg814 mutant, first day adults) was “sustained resistance to the inhibition of pumping”. Also, the “pharyngeal contractions, acute effect” value with C. elegans [2] (N2, 90 minutes in solution of 0, 5 and 10 mM amph) was “inhibits pharyngeal contractions of N2 worms in a dose-dependent manner”; with C. elegans [2] (eg814 mutant, 90 minutes in solution of 0, 5 and 10 mM amph), “exhibits resistance to acute amphetamine”. The molecule further showed a gravid adults with C. elegans [3] (eg814 mutant, 5 mM amph, plated at first larval stage, after 5 days) of around 100%. The growth rates result in the test on C. elegans [3] (eg814 mutant, 5 mM amphetamine) is recorded as “unaffected growth rates”. Moreover, the growth of worms entry in the test with C. elegans [3] (long-term exposure, millimolar levels of amphetamine in agar plates) is “dramatically suppressed the growth of worms”. For the same molecule, in the test with C. elegans [3] (wild-type (N2), 5 mM amphetamine plates, after 5 days), the animals reaching adulthood entry is listed as “no wild-type animals are adults”.
Take `NCc1cc(=O)[nH]o1` [muscimol]: in the test on C. elegans [4], the inhibition of pumping entry is “exhibited similar inhibition of pumping after both 20 and 45 minutes; also recorded: inhibited pumping in both N2 and eg814 worms with a very similar dose response”.

(Values after patent US20070010444A1, “Novel mediator of neurotransmitter and psychostimulant responses” (The Regents of the University of California, priority 2005, published 2007).)
